Experimental data published in patent US20040259096A1, “Receptor capture assay” (priority 2001, published 2004).

Key:
AhR = target: T1, AhR (Homo sapiens, UniProt P35869); details: Van den Berg et al., 1998; cited from earlier work
T1 sequence (P35869 11-848): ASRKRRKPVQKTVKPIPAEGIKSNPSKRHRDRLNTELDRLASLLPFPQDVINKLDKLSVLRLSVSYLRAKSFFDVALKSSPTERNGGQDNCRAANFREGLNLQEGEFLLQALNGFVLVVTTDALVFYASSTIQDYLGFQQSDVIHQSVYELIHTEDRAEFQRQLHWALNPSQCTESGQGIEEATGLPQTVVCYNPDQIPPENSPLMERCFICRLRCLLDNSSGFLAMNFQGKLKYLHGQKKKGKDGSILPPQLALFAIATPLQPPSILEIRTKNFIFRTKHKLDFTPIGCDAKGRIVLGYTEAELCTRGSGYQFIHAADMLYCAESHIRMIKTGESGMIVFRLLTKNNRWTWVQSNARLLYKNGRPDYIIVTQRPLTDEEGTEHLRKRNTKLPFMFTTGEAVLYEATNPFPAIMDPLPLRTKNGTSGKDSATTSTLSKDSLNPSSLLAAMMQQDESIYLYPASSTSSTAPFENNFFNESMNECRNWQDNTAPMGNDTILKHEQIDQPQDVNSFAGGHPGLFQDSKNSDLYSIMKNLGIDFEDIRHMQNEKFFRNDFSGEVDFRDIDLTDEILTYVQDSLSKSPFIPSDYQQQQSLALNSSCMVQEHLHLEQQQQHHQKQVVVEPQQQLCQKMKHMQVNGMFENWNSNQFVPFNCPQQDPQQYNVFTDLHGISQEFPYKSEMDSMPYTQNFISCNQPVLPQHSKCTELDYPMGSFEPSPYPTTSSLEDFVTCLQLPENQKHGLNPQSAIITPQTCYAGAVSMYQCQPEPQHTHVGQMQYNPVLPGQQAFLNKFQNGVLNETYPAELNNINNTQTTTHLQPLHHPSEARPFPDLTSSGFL

Ah receptor [1] = assay: Receptor capture assay employing anti-ARNT magnetic microparticles; type: biochemical; details: 1 μl of 1 nM beta-naphthoflavone
Protocol: Activation of the Ah receptor with dose was performed in a microtiter strip containing 50 μl of Ah receptor preparation, 1 μl of 200 μg/ml biotinylated ARNT, and 1 μl of 1 nM beta-naphthoflavone and incubated for 1 hr at 30° C. To minimize non-specific interactions, 1-2 μg of salmon sperm DNA was added to the activated complex, along with NaCl to a final concentration of 60 mM. After 10 in room temperature, the nucleic acid-tracer (50 fmole) was added, and the reaction allowed to incubate for an additional 10 min at room temperature. Five μl of a 10% solution of microparticles coated with anti-ARNT antibody was added to each well and incubated for 30 min at room temperature on a Wallac microtiter plate shaker. The wells were washed using a using a LifeSep 96P (Dexter, Elk Grove Village, Ill.) magnet designed for separating magnetic particles in a microtiter plate format The strip was placed on the magnetic separator for three minutes. The beads had migrated to the side of the well by this time and the supernatant was removed by aspiration. The beads were washed four additional times with 150 μl of Wash Buffer B. The beads were captured, supernatant removed, and resuspended in the PCR reaction mix and amplified as in Example 2, B. The amplified product was analyzed by gel electrophoresis.

Ah receptor [2] = assay: Biotinylated ARNT assay, neutravidin capture, PCR and gel densitometry; type: biochemical; details: 1 μl of 1 nM beta-naphthoflavone
Protocol: Activation of the Ah receptor with dose was performed in a microfuge tube containing 50 μl of Ah receptor preparation, 1 μl of 200 μg/ml biotinylated ARNT, and 1 μl of 1 nM beta-naphthoflavone and incubated for 1 hr at 30° C. To minimize non-specific interactions, 1-2 μg of salmon sperm DNA was added to the activated complex, along with NaCl to a final concentration of 60 mM. After 10 min at room temperature, varying amounts of nucleic acid-tracer (50-500 fmole) was added, and the reaction allowed to incubate for an additional 10 min at room temperature. The reaction mix (40 μl) was transferred to a neutravidin-coated plate and incubated for 30 min on a Wallac plate shaker at room temperature. The wells were washed five times with Wash Buffer B, soaking wells for 3 min with wash buffer during each cycle, followed by two washes with ultrapure water.
For PCR analysis, 50 μl of PCR reagent was added and the well contents were subjected to 28 cycles of PCR amplification, using GeneAmp PCR System 2700 (Applied Biosystems, Foster City, Calif.). PCR was performed using 50 μl of PCR Master Mix (Promega, Madison, Wis.) diluted to the appropriate concentration with nuclease-free water and 1 μM of each primer was used per PCR reaction. Following the addition of PCR mix, the microtiter strip was sealed with adhesive and placed in the thermocylcer. Samples were initially heated to 95° C. for 5 min to denature the Ah receptor/ARNT complex and free the nucleic acid for PCR analysis then subjected to 28 cycles of 94° C., 30 sec, 52° C., 30 sec, 72° C., 45 sec, followed by 72° C. for 5 min, then cooling to 4° C.
PCR product, 20 μl, was analyzed by 4% agarose gel electrophoresis, with PCR product visualized under UV light by ethidium bromide staining UV light-illuminated gels were photographed using a Polaroid MP 4 Land Camera and Polaroid Type 55 film. Transmission densitometry with film negatives was performed and areas under the peak calculated using arbitrary units.

In the case of `Clc1cc2c(cc1Cl)Oc1cc(Cl)c(Cl)cc1O2` [TCDD, 2,3,7,8-tetrachlorodibenzo-p-dioxin], the “toxic equivalency factor (TEF) value” (AhR) is listed as 1.

In the case of `O=c1cc(-c2ccccc2)oc2ccc3ccccc3c12` [BNF, beta-naphthoflavone], the “amplified DNA over DMSO vehicle controls (gel electrophoresis)” value (Ah receptor [1]) was “significant increase in DNA”, the “area under the peak, PCR product densitometry” value (from here on “area under the peak”) (Ah receptor [2]; Nucleic Acid-Tracer 63 fmol) was 459 arbitrary units and the “area under the peak” value (Ah receptor [2]; Nucleic Acid-Tracer 125 fmol) was 349 arbitrary units. The “area under the peak” value (Ah receptor [2]; Nucleic Acid-Tracer 250 fmol) was 392 arbitrary units and the “area under the peak” value (Ah receptor [2]; Nucleic Acid-Tracer 500 fmol) was 392 arbitrary units.
